Experimental data taken from patent US20060069132A1, “Azolecarboxamide herbicides” (priority 2004, published 2006).

What was measured:
barnyardgrass [1] = test: Test B pre-/postemergence herbicide test; format: in vivo, Echinochloa crus-galli
In short: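 Evaluation is visual, comparing treated with control plants on a scale where 0 means no effect and 100 means full control. Treatments were preemergence, or postemergence on seedlings 2–18 cm tall, and held 13–15 days in the greenhouse.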

large crabgrass = test: Test B pre-/postemergence herbicide test; format: in vivo, Digitaria sanguinalis
In short: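 Pre: seeds sown, then sprayed. Post: 1–4-leaf plants (2–18 cm) sprayed at the same time. Paddy: flooded, treated at 2-leaf stage. Formulation: non-phytotoxic solvent with surfactant. Greenhouse 13–15 days; visual 0–100 score relative to controls.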

woolly cupgrass = test: Test C pre-/postemergence herbicide test; format: in vivo, Eriochloa villosa
Description: (§1) Seeds of plant species selected from bermudagrass (Cynodon dactylon (L.) Pers.), Surinam grass (Urochloa decumbens (Staph) R. D. Webster, previously named Brachiaria decumbens Stapf), cocklebur (Xanthium strumarium L.), corn (Zea mays L.), large crabgrass (Digitaria sanguinalis (L.) Scop.), woolly cupgrass (Eriochloa villosa (Thunb.) Kunth), giant foxtail (Setaria faberi Herrm.), goosegrass (Eleusine indica (L.) Gaertn.), johnsongrass (Sorghum halepense (L.) Pers.), kochia (Kochia scoparia (L.) Schrad.), lambsquarters (Chenopodium album L.), morningglory (Ipomoea coccinea L.), eastern black nightshade (Solanum ptycanthum Dunal), yellow nutsedge (Cyperus esculentus L.), pigweed (Amaranthus retroflexus L.), common ragweed (Ambrosia elatior L.), soybean (Glycine max (L.) Merr.), common (oilseed) sunflower (Helianthus annuus L.) and velvetleaf (Abutilon theophrasti Medik.) were planted and treated preemergence with test chemicals formulated in a non-phytotoxic solvent mixture which included a surfactant.
(§2) At the same time, plants selected from these crop and weed species and also winter barley (Hordeum vulgare L.), blackgrass (Alopecurus myosuroides Huds.), canarygrass (Phalaris minor Retz.), chickweed (Stellaria media (L.) Vill.), downy bromegrass (Bromus tectorum L.), green foxtail (Setaria viridis (L.) Beauv.), Italian ryegrass (Lolium multiflorum Lam.), wheat (Triticum aestivum L.), wild oat (Avenafatua L.) and windgrass (Apera spica-venti (L.) Beauv.) were treated with postemergence applications of some of the test chemicals formulated in the same manner. Plants ranged in height from 2 to 18 cm (1- to 4-leaf stage) for postemergence treatments. Plant species in the flooded paddy test consisted of rice (Oryza sativa), smallflower umbrella sedge (Cyperus difformis L.), ducksalad (Heteranthera limosa (Sw.) Willd.) and barnyardgrass (Echinochloa crus-galli (L.) Beauv.) grown to the 2-leaf stage for testing. Treated plants and controls were maintained in a greenhouse for 12 to 14 days, after which time all species were compared to controls and visually evaluated. Plant response ratings, summarized in Table C, are based on a scale of 0 to 100 where 0 is no effect and 100 is complete control. A dash (-) response means no test result.

johnsongrass = test: Test C pre-/postemergence herbicide test; format: in vivo, Sorghum halepense
Description: as §1, §2

lambsquarters = test: Test C pre-/postemergence herbicide test; format: in vivo, Chenopodium album
Description: as §1, §2

barnyardgrass [2] = test: Test A pre-/postemergence herbicide test; format: in vivo, Echinochloa crus-galli
In short: (§3)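 Sandy loam soil given preemergence directed spray; plants at 2 to 10 cm, one- to two-leaf stage, sprayed to runoff postemergence, compounds in non-phytotoxic solvent with surfactant. Injury rated visually versus untreated controls after about ten greenhouse days, 0 (no effect) to 100 (complete control); dash means not tested.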

morningglory = test: Test A pre-/postemergence herbicide test; format: in vivo, Ipomoea spp.
In short: as §3

[3] = 125 g ai/ha; 0 = no effect, 100 = complete control; preemergence
[4] = 125 g ai/ha; visual rating, scale 0 (no effect) to 100 (complete control); postemergence
[5] = 500 g ai/ha; visual rating, 0 = no effect, 100 = complete control; preemergence
[6] = postemergence, 500 g ai/ha; scale 0 to 100, 0 is no effect, 100 is complete control
[7] = Postemergence, 250 g ai/ha, scale 0 to 100, 0 no effect, 100 complete control
[8] = postemergence, 125 g ai/ha, scale 0 to 100
[9] = postemergence, 62 g ai/ha, scale 0 to 100
[10] = Postemergence, 500 g ai/ha, 0 to 100 scale, 0 no effect, 100 complete control
[11] = Postemergence, 2000 g ai/ha, 0 to 100 scale, 0 no effect, 100 complete control
[12] = Preemergence, 2000 g ai/ha, visual rating, 0 to 100 scale (0 no effect, 100 complete control)
[13] = preemergence, 500 g ai/ha, visual injury, 0 to 100 scale (0 no effect, 100 complete control)
[14] = 125 g ai/ha; 0 is no effect, 100 is complete control; preemergence
[15] = Preemergence, 500 g ai/ha, visual rating, 0 to 100 scale (0 no effect, 100 complete control)
[16] = 500 g ai/ha; visual rating 0-100, 0 no effect, 100 complete control; preemergence
[17] = postemergence, 125 g ai/ha; visual rating, scale 0 (no effect) to 100 (complete control)
[18] = postemergence, 500 g ai/ha; visual rating, scale 0 (no effect) to 100 (complete control)
[19] = preemergence, 125 g ai/ha; 0 to 100 scale, 0 is no effect, 100 is complete control
[20] = Preemergence, 2000 g ai/ha, 0 to 100 scale, 0 no effect, 100 complete control
[21] = Postemergence, 500 g ai/ha; visual rating after 13 to 15 days, scale 0 (no effect) to 100 (complete control)
[22] = 31 g ai/ha, preemergence, scale 0 to 100
[23] = 125 g ai/ha, scale 0 (no effect) to 100 (complete control), visual, 12 to 14 days, preemergence
[24] = 62 g ai/ha, preemergence, scale 0 to 100
[25] = 250 g ai/ha, scale 0-100, preemergence
[26] = 500 g ai/ha, scale 0 to 100 (0 no effect, 100 complete control), visual, 12 to 14 days, preemergence

SMILES	Barnyardgrass plant response rating (0 to 100 scale) (barnyardgrass [1]; [3])	Barnyardgrass plant response rating (barnyardgrass [1]; [4])	Plant response rating, Barnyardgrass (barnyardgrass [1]; [5])	Barnyardgrass plant response rating (barnyardgrass [1]; [6])	Crabgrass, Large plant response rating (0 to 100 scale) (large crabgrass; [3])	Crabgrass, Large plant response rating (large crabgrass; [4])	Plant response rating, Crabgrass, Large (large crabgrass; [5])	Crabgrass, Large plant response rating (large crabgrass; [6])	Barnyardgrass plant response rating (barnyardgrass [2]; [10])	Plant response rating, Barnyardgrass (barnyardgrass [2]; [11])	Barnyardgrass plant response rating (barnyardgrass [2]; [12])	Barnyardgrass plant response rating (barnyardgrass [2]; [13])	Morningglory plant response rating (morningglory; [10])	Plant response rating, Morningglory (morningglory; [11])	Morningglory plant response rating (morningglory; [12])	Morningglory plant response rating (morningglory; [13])	Barnyardgrass plant response rating (barnyardgrass [1]; [17])	Crabgrass, Large plant response rating (large crabgrass; [17])	also measured
CCOC(=O)c1cccc(NC(=O)c2cc(C3(C)CC3)nn2CC)c1 [Compound 295]	10	30	20	50	10	30	80	60	–	–	–	–	–	–	–	–	–	–	Plant response rating, Cupgrass, Woolly (woolly cupgrass; [7]): 15; Plant response rating, Cupgrass, Woolly (woolly cupgrass; [8]): 15; Plant response rating, Cupgrass, Woolly (woolly cupgrass; [9]): 10; Plant response rating, Johnsongrass (johnsongrass; [7]): 5; Plant response rating, Johnsongrass (johnsongrass; [8]): 5; Plant response rating, Johnsongrass (johnsongrass; [9]): 5; Plant response rating, Lambsquarters (lambsquarters; [7]): 50; Plant response rating, Lambsquarters (lambsquarters; [8]): 5; Plant response rating, Lambsquarters (lambsquarters; [9]): 0
C#CCNC(=O)c1cccc(NC(=O)c2sc(C(C)(C)C)nc2CC)c1 [Compound 319]	–	0	80	20	–	20	100	20	10	60	80	55	15	25	60	20	–	–	Plant response rating (0 to 100 scale), Barnyardgrass (barnyardgrass [1]; [14]): 50; Plant response rating (0 to 100 scale), Crabgrass, Large (large crabgrass; [14]): 50
CCn1nc(C(C)(C)C)cc1C(=O)Nc1cncc(C(=O)N2CC=CC2)n1 [Compound 290]	0	0	80	0	0	0	90	0	55	70	90	40	20	30	40	10	–	–	–
CCOc1cccc(NC(=O)c2cc(C(C)(C)C)nn2CC)c1 [Compound 136]	–	–	–	–	–	–	–	–	55	60	85	–	20	40	45	–	50	10	Barnyardgrass plant response rating (barnyardgrass [2]; [15]): 65; Morningglory plant response rating (morningglory; [15]): 20; Plant response rating, Barnyardgrass (barnyardgrass [1]; [16]): 100; Barnyardgrass plant response rating (barnyardgrass [1]; [18]): 90; Plant response rating, Barnyardgrass (barnyardgrass [1]; [19]): 90; Plant response rating, Crabgrass, Large (large crabgrass; [16]): 100; Crabgrass, Large plant response rating (large crabgrass; [18]): 70; Plant response rating, Crabgrass, Large (large crabgrass; [19]): 100
CCOC(=O)c1cc(NC(=O)c2cc(C(C)(C)C)nn2CC)ccc1OCC [Compound 95]	–	–	–	–	–	–	–	–	30	55	–	–	10	15	–	–	0	0	Barnyardgrass plant response rating (barnyardgrass [2]; [15]): 30; Barnyardgrass plant response rating (barnyardgrass [2]; [20]): 50; Morningglory plant response rating (morningglory; [15]): 30; Morningglory plant response rating (morningglory; [20]): 55; Plant response rating, Barnyardgrass (barnyardgrass [1]; [16]): 80; Plant response rating, Barnyardgrass (barnyardgrass [1]; [21]): 20; Plant response rating, Barnyardgrass (barnyardgrass [1]; [19]): 50; Plant response rating, Crabgrass, Large (large crabgrass; [16]): 90; Plant response rating, Crabgrass, Large (large crabgrass; [21]): 50; Plant response rating, Crabgrass, Large (large crabgrass; [19]): 60; Plant response rating, Cupgrass, Woolly (woolly cupgrass; [22]): 0; Plant response rating (0 = no effect, 100 = complete control), Cupgrass, Woolly (woolly cupgrass; 62 g ai/ha, preemergence): 5; Plant response rating, Cupgrass, Woolly (woolly cupgrass; [23]): 10; Plant response rating, Cupgrass, Woolly (woolly cupgrass; 250 g ai/ha, scale 0 to 100 (0 no effect, 100 complete control), visual, 12 to 14 days, preemergence): 30; Plant response rating, Johnsongrass (johnsongrass; [22]): 0; Plant response rating (0 = no effect, 100 = complete control), Johnsongrass (johnsongrass; 62 g ai/ha, preemergence): 0; Plant response rating, Johnsongrass (johnsongrass; [23]): 40
C#CCNC(=O)c1cc(NC(=O)c2cc(C(C)(C)C)nn2CC)ccn1 [Compound 283]	0	–	10	0	0	–	50	10	10	35	30	0	0	0	10	0	0	0	–
CCn1nc(C(C)(C)C)cc1C(=O)Nc1cc(C(=O)N(C)OC)ccc1F [Compound 244]	80	–	90	–	90	–	100	30	–	–	–	–	–	–	–	–	10	10	Barnyardgrass plant response rating (barnyardgrass [1]; [18]): 50; Plant response rating, Cupgrass, Woolly (woolly cupgrass; [24]): 65; Plant response rating, Cupgrass, Woolly (woolly cupgrass; [23]): 65; Plant response rating, Cupgrass, Woolly (woolly cupgrass; [25]): 85; Plant response rating, Cupgrass, Woolly (woolly cupgrass; [26]): 95; Plant response rating, Johnsongrass (johnsongrass; [24]): 60; Plant response rating, Johnsongrass (johnsongrass; [23]): 95; Plant response rating, Johnsongrass (johnsongrass; [25]): 95; Plant response rating, Johnsongrass (johnsongrass; [26]): 100
CCn1nc(C(C)(C)C)cc1C(=O)Nc1nc(C(=O)N2CC=CC2)ccc1F [Compound 281]	20	–	90	0	10	–	70	10	30	65	75	60	10	15	25	5	0	10	–
